Reference: patent US11685732B2, “MYST family histone acetyltransferase inhibitors” (Epizyme, Inc., priority 2017, dated 2023)

Legend:
[1] = biological target: KAT-8 (Homo sapiens (Human), UniProt Q9H7Z6); assay: KAT-8 biochemical inhibition assay (SAMDI mass spectrometry)
Summary of the method: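 Acetylation of 1 μM peptide substrate with 5 μM acetyl-CoA by 12.5 nM enzyme, compound pre-incubated, 2% DMSO, Tris pH 8.0 buffer with DTT, 25 °C for 90 min. Quench with 0.5% formic acid; product read by SAMDI mass spectrometry to give IC50.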

[2] = biological target: KAT-6A (Homo sapiens (Human), UniProt Q92794); assay: KAT-6A biochemical inhibition assay (SAMDI mass spectrometry)
Sequence of KAT-6A (Q92794 other isoform, or with tags, fused parts or gaps): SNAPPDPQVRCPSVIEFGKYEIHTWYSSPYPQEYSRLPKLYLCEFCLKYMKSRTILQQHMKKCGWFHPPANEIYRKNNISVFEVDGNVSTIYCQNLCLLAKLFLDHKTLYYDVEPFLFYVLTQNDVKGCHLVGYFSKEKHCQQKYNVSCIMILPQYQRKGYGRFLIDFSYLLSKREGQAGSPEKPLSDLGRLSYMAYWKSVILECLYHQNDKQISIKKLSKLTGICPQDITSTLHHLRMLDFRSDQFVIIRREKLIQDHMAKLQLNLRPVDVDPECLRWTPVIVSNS
Summary of the method: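 IC50 values came from SAMDI time-of-flight mass spectrometry after formic acid quench (0.5% final). Acetylation ran 90 min at 25 °C with 1 μM acetyl coenzyme A and 1 μM peptide substrate, following compound pre-incubation with 12.5 nM KAT-6A in Tris buffer pH 8.0 containing DTT, 2% DMSO final.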

[3] = biological target: KAT-5 (Homo sapiens (Human), UniProt Q92993); assay: KAT-5 biochemical inhibition assay (SAMDI mass spectrometry)
Sequence of KAT-5 (Q92993 other isoform, or with tags, fused parts or gaps): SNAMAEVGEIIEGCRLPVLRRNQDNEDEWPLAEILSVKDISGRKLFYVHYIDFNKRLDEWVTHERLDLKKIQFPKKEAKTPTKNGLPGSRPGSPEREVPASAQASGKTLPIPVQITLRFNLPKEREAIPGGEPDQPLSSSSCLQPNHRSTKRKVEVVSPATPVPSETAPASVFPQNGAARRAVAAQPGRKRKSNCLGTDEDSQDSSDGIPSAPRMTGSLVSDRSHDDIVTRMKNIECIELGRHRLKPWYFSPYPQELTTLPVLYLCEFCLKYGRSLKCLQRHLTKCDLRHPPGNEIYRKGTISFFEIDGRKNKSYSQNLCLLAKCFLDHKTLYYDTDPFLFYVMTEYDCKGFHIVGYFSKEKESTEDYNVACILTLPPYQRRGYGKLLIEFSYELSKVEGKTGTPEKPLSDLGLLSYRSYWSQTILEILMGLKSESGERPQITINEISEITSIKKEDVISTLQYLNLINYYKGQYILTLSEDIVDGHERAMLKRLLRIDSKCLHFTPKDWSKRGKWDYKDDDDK
Summary of the method: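 Acetylation of 1 μM peptide by 9 nM enzyme with 0.5 μM acetyl-CoA (final) was run 90 min at 25° C in Tris pH 8.0 buffer with DTT, after compound preincubation at 2% DMSO. Formic acid stopped the reaction, and product was quantified by SAMDI mass spectrometry to derive IC50.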

[4] = biological target: KAT-7 (Homo sapiens (Human), UniProt O95251); assay: KAT-7 biochemical inhibition assay (SAMDI mass spectrometry)
Sequence of KAT-7 (O95251 other isoform, or with tags, fused parts or gaps): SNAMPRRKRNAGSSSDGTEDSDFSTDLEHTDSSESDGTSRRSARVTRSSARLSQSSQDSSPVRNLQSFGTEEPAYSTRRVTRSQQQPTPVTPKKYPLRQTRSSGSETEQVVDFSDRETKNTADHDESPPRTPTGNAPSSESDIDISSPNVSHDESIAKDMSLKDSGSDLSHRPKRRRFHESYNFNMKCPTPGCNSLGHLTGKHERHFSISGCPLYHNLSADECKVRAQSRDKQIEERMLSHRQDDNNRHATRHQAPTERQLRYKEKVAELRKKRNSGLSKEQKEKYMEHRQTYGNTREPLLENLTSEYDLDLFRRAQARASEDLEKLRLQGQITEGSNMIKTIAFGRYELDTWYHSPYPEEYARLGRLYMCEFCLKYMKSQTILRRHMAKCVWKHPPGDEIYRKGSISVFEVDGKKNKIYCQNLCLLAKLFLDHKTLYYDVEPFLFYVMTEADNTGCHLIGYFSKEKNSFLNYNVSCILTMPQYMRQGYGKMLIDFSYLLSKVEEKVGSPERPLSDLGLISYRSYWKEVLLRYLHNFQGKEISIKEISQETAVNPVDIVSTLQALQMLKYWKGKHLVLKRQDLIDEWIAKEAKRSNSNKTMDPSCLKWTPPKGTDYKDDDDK
Summary of the method: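 Read-out was SAMDI time-of-flight MS of formic acid-quenched reactions (0.5% final). Compound dilutions (2% DMSO final) were pre-incubated with 6 nM KAT-7 in 50 mM Tris pH 8.0 with 1 mM DTT, then given 1 μM peptide substrate and 2 μM acetyl-CoA for 120 min at 25 °C. IC50 values were derived.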

Sequence of KAT-8 (Q9H7Z6 other isoform, or with tags, fused parts or gaps): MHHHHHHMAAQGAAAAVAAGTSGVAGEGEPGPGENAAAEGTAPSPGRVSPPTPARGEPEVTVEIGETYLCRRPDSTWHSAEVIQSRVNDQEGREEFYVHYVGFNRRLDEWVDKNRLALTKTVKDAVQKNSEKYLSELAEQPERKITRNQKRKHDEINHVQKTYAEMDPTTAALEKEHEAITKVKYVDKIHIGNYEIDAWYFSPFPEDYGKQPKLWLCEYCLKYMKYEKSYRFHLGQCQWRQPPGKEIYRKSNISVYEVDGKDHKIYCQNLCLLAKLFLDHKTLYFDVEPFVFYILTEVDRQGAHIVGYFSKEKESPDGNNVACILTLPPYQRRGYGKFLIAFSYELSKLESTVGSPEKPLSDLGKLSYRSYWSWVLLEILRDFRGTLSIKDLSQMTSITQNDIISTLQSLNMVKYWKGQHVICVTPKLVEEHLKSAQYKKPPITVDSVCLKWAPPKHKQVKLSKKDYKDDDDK

SMILES | IC50 [1] | IC50 [2] | IC50 [3] | IC50 [4]
CNC(=O)NC1CCC(CS(=O)(=O)NNC(=O)c2cc(-c3cn(C)cn3)cc(Cl)c2F)C1 (centres unmarked) [Compound I-360] | 10 to 50 µM | < 10 µM | < 10 µM | < 10 µM
Cn1cnc(-c2cc(Cl)c(F)c(C(=O)NNS(=O)(=O)c3cnn(C)c3)c2)c1 [Compound I-65] | > 100 µM | 10 to 50 µM | 50 to 100 µM | < 10 µM
Cn1cnc(-c2cc(Cl)c(F)c(C(=O)NNS(=O)(=O)C3COC3)c2)c1 [Compound I-42] | > 100 µM | > 100 µM | > 100 µM | < 10 µM
CCNC(=O)N1CC(CS(=O)(=O)NNC(=O)c2cc(-c3cn(C)cn3)cc(Cl)c2F)C1 [Compound I-168] | 10 to 50 µM | 10 to 50 µM | 10 to 50 µM | < 10 µM
CCS(=O)(=O)N1CCCC(CS(=O)(=O)NNC(=O)c2cc(-c3cn(C)cn3)cc(Cl)c2F)C1 (centres unmarked) [Compound I-82] | 10 to 50 µM | < 10 µM | < 10 µM | < 10 µM
CCO[C@@H]1CCC[C@H](CS(=O)(=O)NNC(=O)c2cc(-c3cn(C)cn3)cc(Cl)c2F)C1 [Compound I-356] | 10 to 50 µM | 10 to 50 µM | < 10 µM | < 10 µM
Cc1cc(-c2cn(C)c(Cl)n2)cc(C(=O)NNS(=O)(=O)CC2CCCCC2)c1C [Compound I-147] | > 100 µM | > 100 µM | > 100 µM | > 100 µM
COCCc1c(-c2cc(Cl)c(F)c(C(=O)NNS(=O)(=O)CC3CCOCC3)c2)cnn1C [Compound I-373] | 10 to 50 µM | 10 to 50 µM | 10 to 50 µM | 10 to 50 µM
Cn1cnc(-c2cc(Cl)c(F)c(C(=O)NNS(=O)(=O)C3CCN(C(=O)OC(C)(C)C)CC3)c2)c1 [Compound I-3] | > 100 µM | < 10 µM | < 10 µM | < 10 µM
CN(C(=O)OC(C)(C)C)c1ccc(S(=O)(=O)NNC(=O)c2cc(-c3cn(C)cn3)cc(Cl)c2F)cc1 [Compound I-377] | 10 to 50 µM | 10 to 50 µM | 10 to 50 µM | < 10 µM
Cn1cnc(-c2cc(Cl)c(F)c(C(=O)NNS(=O)(=O)CCC3CCOCC3)c2)c1 [Compound I-244] | 10 to 50 µM | < 10 µM | < 10 µM | < 10 µM
CCNC(=O)N1[C@H]2CC[C@@H](CS(=O)(=O)NNC(=O)c3cc(-c4cn(C)cn4)cc(Cl)c3F)[C@@H]1CC2 [Compound I-260] | 10 to 50 µM | < 10 µM | < 10 µM | < 10 µM
COCCn1cnc(-c2cc(C)c(F)c(C(=O)NNS(=O)(=O)CC3CCCN(C(=O)COC)C3)c2)c1 (centres unmarked) [Compound I-137] | > 100 µM | 50 to 100 µM | 10 to 50 µM | 10 to 50 µM
CC(=O)Nc1cccc(S(=O)(=O)NNC(=O)c2cc(-c3cn(C)cn3)cc(Cl)c2F)c1 [Compound I-367] | 10 to 50 µM | < 10 µM | < 10 µM | < 10 µM
Cc1ncc(-c2cc(Cl)c(F)c(C(=O)NNS(=O)(=O)CC3CCCCC3)c2)n1C [Compound I-29] | > 100 µM | > 100 µM | 10 to 50 µM | 50 to 100 µM
CCS(=O)(=O)N1CC(CS(=O)(=O)NNC(=O)c2cc(-c3cn(C)cn3)cc(Cl)c2F)C1 [Compound I-164] | 10 to 50 µM | < 10 µM | 10 to 50 µM | < 10 µM
CN(C)C(=O)N(C)C1CCCC(CS(=O)(=O)NNC(=O)c2cc(-c3cn(C)cn3)cc(Cl)c2F)C1 (centres unmarked) [Compound I-292] | 10 to 50 µM | < 10 µM | < 10 µM | < 10 µM
CN(C)C(=O)NC1CCCC(CS(=O)(=O)NNC(=O)c2cc(-c3cn(C)cn3)cc(Cl)c2F)C1 (centres unmarked) [Compound I-104] | 10 to 50 µM | < 10 µM | < 10 µM | < 10 µM
Cn1cnc(-c2cc(Cl)c(F)c(C(=O)NNS(=O)(=O)C[C@H]3CCN(C(=O)OC(C)(C)C)C3)c2)c1 [Compound I-122] | 10 to 50 µM | 10 to 50 µM | 10 to 50 µM | < 10 µM
Cc1cc(-c2cn(C)cn2)cc(C(=O)NNS(=O)(=O)Cc2ccccc2)c1F [Compound I-128] | > 100 µM | 10 to 50 µM | 10 to 50 µM | < 10 µM
COc1ccc(CNC(=O)N2CCCC(CS(=O)(=O)NNC(=O)c3cc(-c4cn(C)cn4)cc(Cl)c3F)C2)cc1 (centres unmarked) [Compound I-214] | 10 to 50 µM | < 10 µM | < 10 µM | < 10 µM

SMILES | IC50 [1] | IC50 [2] | IC50 [3] | IC50 [4]
CCNC(=O)N1CCCC(CS(=O)(=O)NNC(=O)c2cc(-c3cn(C)cn3)cc(Cl)c2F)C1 (centres unmarked) [Compound I-105] | 10 to 50 µM | < 10 µM | < 10 µM | < 10 µM
Cn1cnc(-c2cc(Cl)c(F)c(C(=O)NNS(=O)(=O)CC3CN(S(=O)(=O)C4CCC4)C3)c2)c1 [Compound I-170] | 10 to 50 µM | < 10 µM | 10 to 50 µM | < 10 µM
CC1CCN(C(=O)OC(C)(C)C)CC1CS(=O)(=O)NNC(=O)c1cc(-c2cn(C)cn2)cc(Cl)c1F (centres unmarked) [Compound I-303] | 10 to 50 µM | 10 to 50 µM | < 10 µM | < 10 µM
Cn1cnc(-c2cc(Cl)c(F)c(C(=O)NNS(=O)(=O)c3c(F)cccc3F)c2)c1 [Compound I-378] | 10 to 50 µM | < 10 µM | < 10 µM | < 10 µM
CO[C@H]1CC[C@@H](CS(=O)(=O)NNC(=O)c2cc(-c3cn(C)cn3)cc(Cl)c2F)CC1 [Compound I-353] | 10 to 50 µM | < 10 µM | < 10 µM | < 10 µM
Cn1cnc(-c2cc(Cl)c(F)c(C(=O)NNS(=O)(=O)CC3CCCCC3O)c2)c1 (centres unmarked) [Compound I-384] | 50 to 100 µM | 10 to 50 µM | < 10 µM | < 10 µM
CCNC(=O)N1CCC(CS(=O)(=O)NNC(=O)c2cc(-c3cn(C)cn3)cc(Cl)c2F)C1 (centres unmarked) [Compound I-88] | 10 to 50 µM | 10 to 50 µM | < 10 µM | < 10 µM
Cn1cnc(-c2cc(F)c(F)c(C(=O)NNS(=O)(=O)CC3CCOCC3)c2)c1 [Compound I-150] | 10 to 50 µM | 10 to 50 µM | 10 to 50 µM | < 10 µM
Cn1cnc(-c2cc(Cl)c(F)c(C(=O)NNS(=O)(=O)C[C@H]3C[C@@H](NS(C)(=O)=O)C3)c2)c1 [Compound I-173] | 10 to 50 µM | < 10 µM | < 10 µM | < 10 µM
CN(C(=O)C1CCC1)C1CCC(CS(=O)(=O)NNC(=O)c2cc(-c3cn(C)cn3)cc(Cl)c2F)CC1 (centres unmarked) [Compound I-317] | 10 to 50 µM | < 10 µM | < 10 µM | < 10 µM
Cn1cnc(-c2cc(Cl)c(F)c(C(=O)NNS(=O)(=O)c3ccc(F)cc3)c2)c1 [Compound I-316] | 10 to 50 µM | < 10 µM | < 10 µM | < 10 µM
Cn1cnc(-c2cc(Cl)c(F)c(C(=O)NNS(=O)(=O)c3nccs3)c2)c1 [Compound I-227] | 10 to 50 µM | < 10 µM | < 10 µM | < 10 µM
Cn1cnc(-c2cc(Cl)c(F)c(C(=O)NNS(=O)(=O)c3ccc(=O)[nH]c3)c2)c1 [Compound I-381] | 10 to 50 µM | < 10 µM | 10 to 50 µM | < 10 µM
Cn1cnc(-c2cc(Cl)c(F)c(C(=O)NNS(=O)(=O)CC3CCCC(NC(=O)c4ccccc4)C3)c2)c1 (centres unmarked) [Compound I-230] | 10 to 50 µM | < 10 µM | < 10 µM | < 10 µM
COc1ccc(CNC(=O)N[C@H]2C[C@@H](CS(=O)(=O)NNC(=O)c3cc(-c4cn(C)cn4)cc(Cl)c3F)C2)cc1 [Compound I-213] | 10 to 50 µM | < 10 µM | < 10 µM | < 10 µM
CCCS(=O)(=O)N1CC(CS(=O)(=O)NNC(=O)c2cc(-c3cn(C)cn3)cc(Cl)c2F)C1 [Compound I-178] | 10 to 50 µM | < 10 µM | 10 to 50 µM | < 10 µM
Cn1cnc(-c2cc(Cl)c(F)c(C(=O)NNS(=O)(=O)C[C@H]3CC[C@H](NC(=O)Cc4ccccn4)CC3)c2)c1 [Compound I-249] | 10 to 50 µM | < 10 µM | < 10 µM | < 10 µM
CN(C(=O)OC(C)(C)C)C1CCC(CS(=O)(=O)NNC(=O)c2cc(-c3cn(C)cn3)cc(Cl)c2F)CC1 (centres unmarked) [Compound I-296] | 10 to 50 µM | < 10 µM | < 10 µM | < 10 µM
COC1CCC(CS(=O)(=O)NNC(=O)c2cc(-c3cn(C)cn3)cc(Cl)c2F)C1 (centres unmarked) [Compound I-387] | 50 to 100 µM | < 10 µM | < 10 µM | < 10 µM
Cn1cnc(-c2cc(Cl)c(F)c(C(=O)NNS(=O)(=O)C[C@@H]3CCC[C@@H](NC(=O)OC(C)(C)C)C3)c2)c1 [Compound I-333] | 10 to 50 µM | < 10 µM | < 10 µM | < 10 µM
